The text below walks through data of patent US9796733B2, “Imidazo-pyrazine derivatives useful as soluble guanylate cyclase activators” (Merck Sharp & Dohme Corp., priority 2014, dated 2017).

For one assay, the target named is T1, sGC α1/β1 heterodimer (Homo sapiens, UniProt Q02108+Q02153).
T1 construct: expressed in transfected cells; host or cells: CHO-K1 (clone #7, CHO-K1/sGC)
T1 sequence (Q02108 1-690): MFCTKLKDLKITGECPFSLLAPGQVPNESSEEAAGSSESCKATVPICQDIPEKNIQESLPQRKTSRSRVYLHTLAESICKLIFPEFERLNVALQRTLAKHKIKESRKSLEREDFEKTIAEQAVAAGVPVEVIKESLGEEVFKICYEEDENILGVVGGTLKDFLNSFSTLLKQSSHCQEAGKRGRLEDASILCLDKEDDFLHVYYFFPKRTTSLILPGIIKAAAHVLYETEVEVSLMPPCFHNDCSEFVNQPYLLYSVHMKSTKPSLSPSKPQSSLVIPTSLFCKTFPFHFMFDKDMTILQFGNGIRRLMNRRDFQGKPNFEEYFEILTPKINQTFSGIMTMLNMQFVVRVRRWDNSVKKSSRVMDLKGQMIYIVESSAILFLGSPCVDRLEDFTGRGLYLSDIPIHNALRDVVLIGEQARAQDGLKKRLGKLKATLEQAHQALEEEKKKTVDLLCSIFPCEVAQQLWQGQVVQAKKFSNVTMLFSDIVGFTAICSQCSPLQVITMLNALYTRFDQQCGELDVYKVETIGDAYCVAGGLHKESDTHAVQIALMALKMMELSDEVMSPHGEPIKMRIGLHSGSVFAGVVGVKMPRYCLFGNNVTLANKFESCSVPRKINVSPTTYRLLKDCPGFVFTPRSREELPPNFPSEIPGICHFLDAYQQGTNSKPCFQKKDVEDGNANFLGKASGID
T1 sequence (Q02153 1-619): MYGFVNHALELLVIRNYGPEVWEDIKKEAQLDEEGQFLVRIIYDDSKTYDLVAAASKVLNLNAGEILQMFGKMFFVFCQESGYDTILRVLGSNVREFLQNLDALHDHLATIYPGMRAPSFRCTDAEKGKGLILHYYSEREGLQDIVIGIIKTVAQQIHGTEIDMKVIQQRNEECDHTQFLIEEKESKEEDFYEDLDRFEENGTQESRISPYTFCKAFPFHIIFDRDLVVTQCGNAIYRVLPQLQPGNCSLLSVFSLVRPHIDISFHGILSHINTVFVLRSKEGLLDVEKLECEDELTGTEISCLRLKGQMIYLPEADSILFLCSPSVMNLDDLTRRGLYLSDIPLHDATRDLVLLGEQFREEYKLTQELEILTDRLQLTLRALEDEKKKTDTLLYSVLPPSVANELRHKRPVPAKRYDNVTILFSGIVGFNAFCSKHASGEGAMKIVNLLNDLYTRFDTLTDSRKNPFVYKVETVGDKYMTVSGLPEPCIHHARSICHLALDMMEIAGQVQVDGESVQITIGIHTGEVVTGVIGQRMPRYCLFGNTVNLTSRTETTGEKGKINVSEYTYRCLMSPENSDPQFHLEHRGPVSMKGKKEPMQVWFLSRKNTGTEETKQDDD
Nature of the assay: Cell-based sGC functional assay (CASA assay): cGMP generation in CHO-K1/sGC cells, HTRF detection. As to conditions: for Emax: CHO-K1, percent activation relative to standard Compound A in CHO-K1/sGC cells, read-out: % Act.; for EC50: inflection point (IP) of cGMP generation in CHO-K1/sGC cells, 4P fit, activity expressed as percentage of Compound A. The method, boiled down:
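Stable CHO-K1/sGC cells in EBSS buffer with 5 mM MgCl2, 0.05% BSA and 0.5 mM IBMX were incubated with compound (2.5% DMSO final) ±1 μM DETA-NO for 1 hr at 37° C. cGMP was measured by HTRF. Activation is expressed as % of reference HDA Compound A maximum, with IP and max fold induction from a 4P fit.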
A general note: In TR-FRET formats the signal depends on donor and acceptor labels being close together.

Assay [1] deals with Spontaneously hypertensive rats (SHR). Nature of the assay: Acute efficacy in spontaneously hypertensive rats (SHR): telemetry blood pressure lowering after a single oral dose. Type of assay: in vivo, rat. The gist of the method:
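Male SHR carrying aortic telemetry implants (14-day recovery) received a single oral gavage of compound or vehicle (10% transcutol/20% Cremophor/70% water). Conscious blood pressure was sampled 30 s every 10 min and averaged hourly; change was taken against the prior-day vehicle baseline, reported as maximum peak SBP decrease at a given PO dose (mpk).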

As usually defined, the EC50 is the midpoint of the concentration-response curve. A low value points to higher potency in that assay. `CCCc1nc(-c2nc(N)c3c(n2)NC(=O)C3(C)c2ccc(Cl)c(F)c2)cn2ccnc12` (stereo not drawn) [Example 124B, 4-amino-5-(4-chloro-3-fluorophenyl)-5-methyl-2-(8-propylimidazo[1,2-a]pyrazin-6-yl)-5H-pyrrolo[2,3-d]pyrimidin-6(7H)-one]: on sGC α1/β1 heterodimer, the Emax is 103% and the EC50 worked out at 34 nM. The “Maximum peak decrease of systolic blood pressure (SBP) in SHR, Cat.” value (shortened to “Maximum peak decrease”) in assay [1] (P.O. 0.3 mpk) is “B (Category B=SBP in SHRs 20-40 mmHg)”.

`CCCc1nc(-c2nc(N)c3c(n2)NC(=O)C3(C)c2ccc(Cl)cn2)cn2ccnc12` (stereo not drawn) [Example 129A, 4-amino-5-(5-chloropyridin-2-yl)-5-methyl-2-(8-propylimidazo[1,2-a]pyrazin-6-yl)-5H-pyrrolo[2,3-d]pyrimidin-6(7H)-one]: on sGC α1/β1 heterodimer, the Emax was found to be 94% and the EC50 stood at 107 nM. For the same compound, in assay [1] (P.O. 1.0 mpk), the “Maximum peak decrease” value is given as “B (Category B=SBP in SHRs 20-40 mmHg)”.

With `CCCc1nc(-c2nc(N)c3c(n2)NC(=O)C3(C)c2ccc(C(F)(F)F)cc2)cn2ccnc12` (stereo not drawn) [Example 131B, 4-amino-5-methyl-2-(8-propylimidazo[1,2-a]pyrazin-6-yl)-5-(4-(trifluoromethyl)phenyl)-5H-pyrrolo[2,3-d]pyrimidin-6(7H)-one], on sGC α1/β1 heterodimer, the Emax was determined as 88% and a half-maximal response (EC50) required 178 nM. For the same compound, the “Maximum peak decrease” value in assay [1] (P.O. 1.0 mpk) is “B (Category B=SBP in SHRs 20-40 mmHg)”.

With `CCCc1nc(-c2nc(N)c3c(n2)NC(=O)C3(C)c2ccc(C(F)(F)F)cn2)cn2ccnc12` (stereo not drawn) [Example 132B, 4-amino-5-methyl-2-(8-propylimidazo[1,2-a]pyrazin-6-yl)-5-(5-(trifluoromethyl)pyridin-2-yl)-5H-pyrrolo[2,3-d]pyrimidin-6(7H)-one], at sGC α1/β1 heterodimer, the Emax was 99% and the EC50 was 949 nM. The “Maximum peak decrease” value in assay [1] (P.O. 3.0 mpk) is listed as “B (Category B=SBP in SHRs 20-40 mmHg)”.

In the case of `CC1(c2ccc(F)cc2)C(=O)Nc2nc(-c3cn4ccnc4cn3)nc(N)c21` (stereo not drawn) [Example 134A, 4-amino-5-(4-fluorophenyl)-2-(imidazo[1,2-a]pyrazin-6-yl)-5-methyl-5H-pyrrolo[2,3-d]pyrimidin-6(7H)one], on sGC α1/β1 heterodimer, the Emax worked out at 118% and the 50% effective concentration (EC50) is 627 nM. For the same compound, in assay [1] (P.O. 3.0 mpk), the “Maximum peak decrease” value was “B (Category B=SBP in SHRs 20-40 mmHg)”.

Take `CC1(c2ccc(Br)cc2)C(=O)Nc2nc(-c3cn4ccnc4cn3)nc(N)c21` (stereo not drawn) [Example 135A, 4-amino-5-(4-bromophenyl)-2-(imidazo[1,2-a]pyrazin-6-yl)-5-methyl-5H-pyrrolo[2,3-d]pyrimidin-6(7H)-one]: on sGC α1/β1 heterodimer, the Emax was 148% and the EC50 came out at 57 nM. Also, the “Maximum peak decrease” value in assay [1] (P.O. 1.0 mpk) is “B (Category B=SBP in SHRs 20-40 mmHg)”.

`CC1(c2ccc(Cl)cc2F)C(=O)Nc2nc(-c3cn4ccnc4cn3)nc(N)c21` (stereo not drawn) [Example 136A, 4-amino-5-(4-chloro-2-fluorophenyl)-2-(imidazo[1,2-a]pyrazin-6-yl)-5-methyl-5H-pyrrolo[2,3-d]pyrimidin-6(7H)-one]: on sGC α1/β1 heterodimer, the Emax was 129% and the midpoint of the response, the EC50, lay at 77 nM. In addition, the “Maximum peak decrease” value in assay [1] (P.O. 1.0 mpk) is given as “B (Category B=SBP in SHRs 20-40 mmHg)”.

`Nc1nc(-c2cn3ccnc3cn2)nc2c1C(c1ccc(Cl)c(F)c1)(C1CC1)C(=O)N2` (stereo not drawn) [Example 137B, 4-amino-5-(4-chloro-3-fluorophenyl)-5-cyclopropyl-2-(imidazo[1,2-a]pyrazin-6-yl)-5H-pyrrolo[2,3-d]pyrimidin-6(7H)-one]: at sGC α1/β1 heterodimer, the Emax was 108% and a half-maximal response (EC50) required 135 nM. In addition, the “Maximum peak decrease” value in assay [1] (P.O. 1.0 mpk) is listed as “B (Category B=SBP in SHRs 20-40 mmHg)”.

Take `CC1(c2ccc(Cl)c(Cl)c2)C(=O)Nc2nc(-c3cn4ccnc4cn3)nc(N)c21` (stereo not drawn) [Example 138A, 4-amino-5-(3,4-dichlorophenyl)-2-(imidazo[1,2-a]pyrazin-6-yl)-5-methyl-5H-pyrrolo[2,3-d]pyrimidin-6(7H)-one]: at sGC α1/β1 heterodimer, the Emax worked out at 151% and the response was half-maximal at 369 nM (EC50). In addition, the “Maximum peak decrease” value in assay [1] (P.O. 3.0 mpk) was “B (Category B=SBP in SHRs 20-40 mmHg)”.

As for `CC1(c2ccc(F)cc2F)C(=O)Nc2nc(-c3cn4ccnc4cn3)nc(N)c21` (stereo not drawn) [Example 139A, 4-amino-5-(2,4-difluorophenyl)-2-(imidazo[1,2-a]pyrazin-6-yl)-5-methyl-5H-pyrrolo[2,3-d]pyrimidin-6(7H)-one], on sGC α1/β1 heterodimer, the Emax turned out to be 118% and the EC50 stood at 222 nM. Further, the “Maximum peak decrease” value in assay [1] (P.O. 3.0 mpk) is on record as “C (Category C=SBP in SHRs>40 mmHg)”.

For `CC1(c2ccc(Cl)c(F)c2)C(=O)Nc2nc(-c3cn4ccnc4cn3)nc(N)c21` (stereo not drawn) [Example 140B, 4-amino-5-(4-chloro-3-fluorophenyl)-2-(imidazo[1,2-a]pyrazin-6-yl)-5-methyl-5H-pyrrolo[2,3-d]pyrimidin-6(7H)-one], at sGC α1/β1 heterodimer, the Emax is 107% and the EC50 turned out to be 217 nM. Also, the “Maximum peak decrease” value in assay [1] (P.O. 0.3 mpk) is “B (Category B=SBP in SHRs 20-40 mmHg)”.

Take `CC1(c2ccc(F)c(F)c2)C(=O)Nc2nc(-c3cn4ccnc4cn3)nc(N)c21` (stereo not drawn) [Example 141B, 4-amino-5-(3,4-difluorophenyl)-2-(imidazo[1,2-a]pyrazin-6-yl)-5-methyl-5H-pyrrolo[2,3-d]pyrimidin-6(7H)-one]: on sGC α1/β1 heterodimer, the Emax was 112% and a half-maximal effect (EC50) was put at 236 nM. Besides, in assay [1] (P.O. 3.0 mpk), the “Maximum peak decrease” value was “B (Category B=SBP in SHRs 20-40 mmHg)”.

Take `CC1(c2ccc(C(F)(F)F)cc2)C(=O)Nc2nc(-c3cn4ccnc4cn3)nc(N)c21` (stereo not drawn) [Example 143B, 4-amino-2-(imidazo[1,2-a]pyrazin-6-yl)-5-methyl-5-(4-(trifluoromethyl)phenyl)-5H-pyrrolo[2,3-d]pyrimidin-6(7H)-one]: on sGC α1/β1 heterodimer, the Emax amounted to 78% and it took 252 nM to reach a half-maximal effect (EC50). Also, the “Maximum peak decrease” value in assay [1] (P.O. 3.0 mpk) is listed as “B (Category B=SBP in SHRs 20-40 mmHg)”.

Turning to `CC1(c2ccc(Cl)cc2)C(=O)Nc2nc(-c3cn4ccnc4cn3)nc(N)c21` (stereo not drawn) [Example 144A, 4-amino-5-(4-chlorophenyl)-2-(imidazo[1,2-a]pyrazin-6-yl)-5-methyl-5H-pyrrolo[2,3-d]pyrimidin-6(7H)-one], at sGC α1/β1 heterodimer, the Emax stood at 117% and the EC50 was determined as 400 nM. For the same compound, the “Maximum peak decrease” value in assay [1] (P.O. 1.0 mpk) is “B (Category B=SBP in SHRs 20-40 mmHg)”.

As for `CC1(c2ccc(F)cc2)C(=O)Nc2nc(-c3cn4cc(C(F)(F)F)nc4c(Cc4ccccc4)n3)nc(N)c21` (stereo not drawn) [Example 154A, 4-amino-2-(8-benzyl-2-(trifluoromethyl)imidazo[1,2-a]pyrazin-6-yl)-5-(4-fluorophenyl)-5-methyl-5H-pyrrolo[2,3-d]pyrimidin-6(7H)-one], on sGC α1/β1 heterodimer, the Emax was 120% and the EC50 is 85 nM. Further, in assay [1] (P.O. 1.0 mpk), the “Maximum peak decrease” value is “A (Category A=SBP in SHRs<20 mmHg)”.

Turning to `CC1(c2ccc(F)cc2)C(=O)Nc2nc(-c3cn4cc(C5CC5)nc4c(CCC(F)(F)C(F)(F)F)n3)nc(N)c21` (stereo not drawn) [Example 157A, 4-amino-2-(2-cyclopropyl-8-(3,3,4,4,4-pentafluorobutyl)imidazo [1,2-a]pyrazin-6-yl)-5-(4-fluorophenyl)-5-methyl-5H-pyrrolo[2,3-d]pyrimidin-6(7H)-one], on sGC α1/β1 heterodimer, the Emax worked out at 90% and the concentration for a half-maximal effect (EC50) came out at 227 nM. The “Maximum peak decrease” value in assay [1] (P.O. 3.0 mpk) was “B (Category B=SBP in SHRs 20-40 mmHg)”.
